Patent US7341991B2, “Inhibitors of amyloid precursor protein processing” (Posco, priority 2004, dated 2008)
“Also recorded” adds a separate entry of the source. Where no end group is shown, it is not given here.

Key:
[1] = test system: γ-secretase cleavage in KEK293 APP cells; assay: Cell based γ-secretase assay (α-CTF, Western); design: species or system human; conditions: 9 hours treatment, α-CTF accumulation
Method: In order to test these peptides in the cell for their inhibitory effect on γ-secretase cleavage, a cell based assay was developed. After KEK293 APP cells were cultured in 6 well culture plates with 90% confluency, the cells were treated for 9 hours with N-[N-(3,5-difluorophenacetyl)-L-alanyl]-(S)-phenylglycine t-butyl ester (DAPT) (Dovey H F et al, J. Neurochemistry 2001; 76:173-181), which is a known γ-secretase inhibitor, and complementary peptides. The cells in each well were lysed and these lysates were separated with 15% tris-tricine gel. Western analysis was performed with R1 antibody as primary antibody and goat anti-rabbit-HRP as secondary antibody.

[2] = test system: APP processing in HEK293-APP cells; assay: Cell based assay of APP processing (βCTF, Western blot) in HEK293-APP cells; design: species or system human; conditions: βCTF
Method: In the neuronal cells of the brain, APP is processed by α-secretase or β-secretase. To investigate the effects of the inhibitors on the cell, a cell based assay system was developed as described in FIG. 10. C-terminal fragment of APP remaining on the cell membrane was detected by Western blot. The resulting C-terminal fragments, αCTF or βCTF are further processed by γ-secretase. However, if the cells are treated with the γ-secretase inhibitor, this processing is blocked. As a result, αCTF or βCTF accumulate in the cell. If β-secretase inhibitor or APP inhibitor is added, this processing is blocked and βCTF disappears.
To test APP inhibitor activities in cells, three complementary peptides, c-Sub M, c-Sub MΔC6, and c-Sub MΔN1C1, which show high absorbance in binding test, were added to whole cell extracts of HEK293-APP cells (Lanes 2, 3, and 4 in FIG. 11). In addition, γ-secretase inhibitor and cholesterol were added to the cells to increase βCTF level. Commercially available peptide-based β-secretase inhibitor was included as control (Lane 6, FIG. 11). To detect the N-terminal fragment of β-amyloid which is a product of APP processing, 6E10 antibody was employed. […] Recently, it has been reported that the commercially available peptide-based inhibitor had to be linked to an oligoarginine transporter peptide to have inhibitory activity against cells. Therefore, mimetic approach is adopted to produce cell permeable analogs. (Chang et al. J. Neurochemistry 2004; 89:1409-1416).
After confirming the ability of the oligo-arginine coupled APP inhibitors to enter the cells, the inhibitors were applied to HEK293-APP cells overexpressing APP to test their inhibitory activities on APP processing. […] This inhibitor started to show significant inhibitory activity beginning from 0.1 μM (lower panel).

[3] = target: T1, cleavage of Sub-ST6Gal1 by rhBACE1 (Rattus norvegicus, UniProt P13721); assay: HPLC analysis of cleavage of ST6Gal1 substrate by β-secretase; assay type: biochemical, human; conditions: up to 10 inhibitor/substrate ratio; Sub-ST6Gal1 50 μM, 500 nM rhBACE1
T1 construct: Sub-ST6Gal1 (50 μM, DYEALTLQAKEFQMPKSQE) peptide corresponding to the β-cleavage site of ST6Gal1; purchased R&D Systems (enzyme); A&Pep Co., Inc. (non-labelled peptides)
Text: (§1) One of the advantages of the APP inhibitor described in the present invention is that it is a peptide or a mimetic that bind to the β-secretase cleavage site of APP, thus not affecting other β-secretase substrates. To confirm the specificity of the inventive APP inhibitor, two different types of substrates were used, APP Sub M and ST6Gal1. Both substrates are cleaved by β-secretase under normal conditions and the effect of the inventive APP inhibitor on the substrate cleavage was monitored by HPLC (See the schematic diagram in FIG. 16.) To carry out these experiments, the concentration of β-secretase required for cleavage of both substrates was determined as shown in FIG. 17. For substantial cleavage of ST6Gal1 substrate, 420 nM of the enzyme was required. Therefore, 420 nM of β-secretase was used for the following experiment.
Various concentrations of HC peptide were preincubated with either Sub M (50 μM) or Sub-ST6Gal1 (50 μM, DYEALTLQAKEFQMPKSQE) peptide corresponding to the β-cleavage site of ST6Gal1 for 2 h at RT. The mixtures containing Sub M was treated with 50 nM of rhBACE1 and that containing Sub-ST6Gal1 was treated with 500 nM enzyme for 12 h at RT. Roughly 50% of each BACE1 substrate was cleaved in the absence of HC peptide. The cleavage products were separated on a C18 reversed-phase HPLC column as described above.

[4] = test system: cleavage of Substrate M by rhBACE (recombinant human β-secretase); assay: Fluorometric (FRET) assay for cleavage of F-Substrate M by β-secretase; assay type: biochemical; conditions: for inhibitory activity group on Substrate M cleavage: tested at various concentrations (FIG. 8)
Text: This assay system utilizes fluorescence resonance energy transfer (FRET) technology. Substrate M was synthesized with two fluorophores, a fluorescent donor and a proprietary quenching acceptor (purchased from a commercial source, R&D Systems). […] Upon cleavage of substrate by β-secretase, the fluorophore is separated from the quenching group, restoring the full fluorescence yield of donor.
Substrate labeled with fluorophores will be called F-Substrate M (R&D Systems). Recombinant human β-secretase will be called rhBACE (recombinant human β-site APP cleavage enzyme) (purchased from R&D systems).
[…] Cleavage by rhBACE was detected by reading emitted fluorescence level.
In this assay system, fluorescence resonance energy transfer (FRET) technology was utilized. […] After pre-incubation, substrate and HC peptide mixture in assay buffer was transferred to FluoroNunc™ 96 well white plate (Nunc, Roskilde, Denmark), and rhBACE1 (70 nM) was added. Time-dependent emission of fluorescence (excitation at 320 nm, emission at 405 nm) was monitored in a Molecular Devices SpectraMax Gemini EM fluorescence reader (CA, USA) for 1 h at 37° C. All assays were carried out in duplicate.

[5] = target: T2, Sub-ST6Gal1 (DYEALTLQAKEFQMPKSQE) (Rattus norvegicus, UniProt P13721); assay: Binding of bio-Sub-ST6Gal1 to immobilized HC peptide; conditions: peptide coupled on microtiter plate
T2 construct: 19 amino acid region (DYEALTL/QAKEFQMPKSQE) that contains the β-cleavage site for investigation was chosen; purchased Peptron, Inc; host or cells: chemical synthesis
Method: (§2) Reacti-Bind™ maleic anhydride-activated polystyrene plate (Pierce, IL, USA) was coated with 50 μl of HC peptide (200 μM in distilled water) by chemical coupling for 3 h at room temperature (RT) and washed three times with phosphate buffered saline (PBS) containing 0.05% tween 20 (PBST). The plate was blocked with blocking buffer (0.5% gelatin in PBS) for 1 h at RT. After discarding blocking buffer, biotinylated BACE1 substrates (200 μM) in blocking buffer was applied on the plate and incubated for 2.5 h at RT. Each well was washed three times with PBST. The bound biotinylated BACE1 substrates were detected by incubation with streptavidin-horseradish peroxidase (Str-HRP, 125 mU/ml in blocking buffer) for 2 h at RT. Color reaction was carried out with 50 μl of 3,3′,5,5′-Tetramethylbenzidine Liquid Substrate (Sigma-Aldrich, MO, USA). After stopping the reaction by addition of an equal volume of 1 N HCl, absorbance at 450 nm was read in an automated ELISA reader (EL 312e, Bio-Tek Instruments, VT, USA). All assays were carried out in duplicate.
It was investigated if HC peptide would show specificity for APP in terms of the inhibition of cleavage by BACE1. ST6Gal1 is also cleaved by BACE1. For this experiment, 19 amino acid region (DYEALTL/QAKEFQMPKSQE) that contains the β-cleavage site for investigation was chosen. The 19 amino acid peptide was designated as Sub-ST6Gal1. […]

[6] = test system: cleavage of Sub M by rhBACE1; assay: HPLC analysis of cleavage of Substrate M by β-secretase; assay type: biochemical; conditions: 25-fold amount of inhibitor; 420 nM β-secretase
Method: Substrate M (100 μM) was preincubated with complementary peptides ([…]) in assay buffer (100 μl) overnight at RT. rhBACE (140 nM) in assay buffer was added and incubated for 11 hr at RT. Cleavage products of Substrate M by rhBACE were quantitated after separation by C-18 reversed-phase column chromatography (GRACE VyDAC).
as §1
Reversed-phase HPLC was also used to analyze the products of enzyme action in vitro. […] The cleavage products were identified at 215 nm and quantitated by integrating the area under each peak. […]

[7] = test system: γ-secretase (membrane fractions of N2a cells); assay: γ-Secretase activity assay on membrane fractions of N2a cells; assay type: biochemical, mouse; conditions: 200 μM peptide, 12.5 μM fluorogenic substrate, 1 hour preincubation
Method: Since γ-secretase is composed of four components, cloning of γ-secretase gene is impossible. Therefore, cell extracts were used as γ-secretase source. To obtain the cell extracts, after cell lysis with extraction buffer, the lysate was centrifuged at 10,000×g for 1 minute. Afterward, 2× reaction buffer and fluorogenic substrate was mixed and added to the cell lysate. Then, this mixture was incubated at 37° C. and γ-secretase activity was detected at excitation 335 to 355 nm and emission 495 to 510 nm.
γ-Secretase activity assay was performed on membrane fractions of N2a cells in the presence of several complementary peptides. After 12.5 μM fluorogenic substrate and 200 μM each of the complementary peptides were preincubated for 1 hour, γ-secretase was added to the mixture. In the course of time, the fluorogenic substrate was cleaved by the γ-secretase.

[8] = target: T3, Substrate W (SEVKMDAEFR, β-secretase cleavage site of wild type APP) (Homo sapiens, UniProt P05067); assay: Binding of biotin-labeled Substrate W to immobilized complementary (HC) peptides
T3 construct: purchased Peptron, Inc; host or cells: chemical synthesis
Method: (§3) Complementary peptides (0.2, 2, 20, and 200 μM) were dissolved in phosphate buffered saline (PBS) (pH 7.4) and fixed to microtiter wells for 5 hr at 37° C. The wells were blocked with blocking buffer (3% BSA/PBS) for 1 hr at 37° C. Either N-terminally biotinylated Substrate W or M (20 μM) in blocking buffer was added and incubated for overnight at 4° C. Streptavidin-horseradish peroxidase in blocking buffer was added to detect resulting bound substrates. The plate was incubated for 2 hr at room temperature (RT), followed by addition of 3, 3′, 5,5′-tetramethyl-benzidine (TMB) as substrate for horseradish peroxidase for color reaction.
In particular, for Substrate W, complementary peptides (200 μM) dissolved in phosphate buffered saline (PBS) (pH 7.4) were chemically coupled to Reacti-Bind Maleic Anhydride Activated Polystyrene wells (Pierce Biotechnology, Inc.) for overnight at room temperature (RT). Remaining active sites of the plate were inactivated by adding ethanolamine (1 M) for 1 hr at RT. The wells were blocked with blocking buffer (3% BSA/PBS) for 1 hr at RT. N-terminally biotinylated Substrate W (20 μM) in blocking buffer was added and incubated for 3 hr at RT. Streptavidin-horseradish peroxidase in blocking buffer was added to detect resulting bound substrates. The plate was incubated for 2 hr at room temperature (RT), followed by addition of 3,3′,5,5′-tetramethyl-benzidine (TMB) as substrate for horseradish peroxidase for color reaction.
as §2

[9] = test system: Substrate M (SEVNLDAEFR, β-secretase cleavage site of APPsw); assay: Binding of biotin-labeled Substrate M to immobilized complementary (HC) peptides; conditions: biotin-labeled Sub M, peptide immobilized on plate
Method: as §3, §2

rhBACE1 = target: T4, rhBACE1 (Homo sapiens, UniProt P56817); assay: ELISA binding of rhBACE1 to immobilized c-Sub M
T4 construct: purchased R&D Systems
Text: In one embodiment of the present invention, four HC decapeptides targeted to either wild type APP or APPsw may be designed. […] Therefore, there is possibility that c-Sub M or any compounds derived from c-Sub M may inhibit production of Aβ from wild type APP in cells.

T4 sequence (P56817 46-501): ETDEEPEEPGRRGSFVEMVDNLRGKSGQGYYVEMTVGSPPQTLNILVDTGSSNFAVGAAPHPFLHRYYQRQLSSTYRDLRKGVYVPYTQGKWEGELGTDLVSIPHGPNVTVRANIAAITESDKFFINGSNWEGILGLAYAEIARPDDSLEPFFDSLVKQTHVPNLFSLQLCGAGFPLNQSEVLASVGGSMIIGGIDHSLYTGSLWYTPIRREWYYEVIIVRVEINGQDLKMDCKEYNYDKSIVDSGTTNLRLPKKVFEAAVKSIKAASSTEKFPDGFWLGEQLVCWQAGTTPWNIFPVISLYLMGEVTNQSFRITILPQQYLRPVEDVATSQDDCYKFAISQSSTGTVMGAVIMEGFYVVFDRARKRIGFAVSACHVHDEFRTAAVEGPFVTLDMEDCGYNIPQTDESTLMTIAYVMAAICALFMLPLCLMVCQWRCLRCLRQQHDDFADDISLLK

For `C[C@H](NC(=O)Cc1cc(F)cc(F)c1)C(=O)N[C@H](C(=O)OC(C)(C)C)c1ccccc1` [DAPT, N-[N-(3,5-difluorophenacetyl)-L-alanyl]-(S)-phenylglycine t-butyl ester], which “inhibition of γ-secretase activity in cells” value [1] is on record?
The value was “inhibits γ-secretase activity very effectively”.

Which “inhibitory activity on APP processing” value [2] does the source give for EFCIQIHF [c-Sub M ΔN1C1] here?
Its value is “none of the inhibitors tested showed inhibitory activity”.

What about the “inhibition of cleavage of Sub-ST6Gal1” value [3] of the same compound?
The value was “about 10%”.

And the “inhibitory activity group on Substrate M cleavage” value [4]?
The value was “most active”.

What about the “binding of bio-Sub-ST6Gal1” value [5] of the same compound?
The value was “also bound”.

What does the source list for FCIQIHF (FCIQIHF-NH2) [c-Sub M ΔN2C1]?
Sub M cleavage blocked [6]: about 60%; inhibitory activity group on Substrate M cleavage [4]: most active

For PQQYRCHRQR [rCh2 (3′→5′)], which “inhibitory effect on γ-secretase activity” value [7] is on record?
The value was “about 80%”.

What does the source list for SEFCIQIHFR-NH2 [c-Sub M, SEFCIQIHFR]?
binding to Sub W relative to c-Sub W ([8]; bio-Sub W): 4 fold; binding to Substrate W ([8]; biotin-labeled Sub W, peptide immobilized on plate): binds the wild type substrate Sub W efficiently; inhibitory activity on APP processing [2]: does not inhibit the processing of APP in cells; also recorded: none of the inhibitors tested showed inhibitory activity; entry / transport into the cells (HEK293-APP cells): does not enter the cells; binding to Substrate M [9]: binds to Sub M appreciably and bind and binds its substrate Sub M and highest binding; binding to Substrate M ([9]; listed as c-Sub): bound; inhibition of cleavage of Substrate M by β-secretase ([4]; in vitro, rhBACE1): inhibit cleavage; inhibitory activity group on Substrate M cleavage [4]: less activity; binding to rhBACE1 (rhBACE1): does not bind to rhBACE1
